For 23 molecules, Emax results are on record in US20160046592A1, “PHARMACEUTICAL COMPOSITION FOR THE TREATMENT OF DIABETES” (Ajinomoto Co., Inc., priority 2013, published 2016).

Structures can show the parent of a compound that is named as a salt.

In this test the target is T1, PPAR-α (Homo sapiens, UniProt Q07869).
T1 construct: expressed in transfected cells; host or cells: CV-1 (African green monkey kidney)
T1 sequence (Q07869 167-468): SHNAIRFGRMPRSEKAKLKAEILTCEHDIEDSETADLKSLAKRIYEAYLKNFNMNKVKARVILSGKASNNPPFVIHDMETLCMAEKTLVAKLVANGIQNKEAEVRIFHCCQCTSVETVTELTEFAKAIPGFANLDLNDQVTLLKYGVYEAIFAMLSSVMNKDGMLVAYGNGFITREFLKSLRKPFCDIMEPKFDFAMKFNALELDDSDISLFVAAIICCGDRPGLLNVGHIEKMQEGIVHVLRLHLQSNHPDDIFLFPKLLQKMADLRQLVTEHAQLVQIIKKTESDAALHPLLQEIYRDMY
The test can be described thus: Measurement of PPAR-α activity (GAL4 luciferase reporter assay in CV-1 cells). Type of test: cell-based. The settings on record: 100(A/B): A = maximum PPAR-α activity of test compound at 3, 10, 30 and 100 μM, B = activity of the compound of WO/2011/058154 at 100 μM, 18 to 20 hours, read-out: Relative fold induction (%) of PPAR α. The procedure: The PPAR-α activity was measured according to the published article (THE JOURNAL OF BIOLOGICAL CHEMISTRY Vol. 270, No 0.22: 12953-12956, 1995).
Plasmids used for the PPAR-α activity measurement were constructed as follows. A luciferase expression plasmid (UAS×5-TK-Luc) used was obtained by introducing a sequence in which five yeast GAL4-binding sequences are linked in tandem into a portion upstream of a thymidine kinase promoter of pTAL-Luc (Takara Bio Inc., 6252-1). A PPAR-α receptor expression plasmid (hGR-GAL4-hPPARα) used was obtained by introducing a human GR N-terminal region (1-76aa), a yeast GAL4 DNA-binding region (1-147aa), and a PPARα ligand-binding region (167-468aa) between Not I and Sal I sites of pExchange-1 Core Vector (Invitrogen, 211176).
A reporter assay was conducted by the following method using African green monkey kidney-derived CV-1 cells. The CV-1 cells were seeded in a 96-well plate (Thermo Fisher Scientific K.K., 4938) at 2×10^4 cells/well by using a 10% FBS-containing DMEM (NACALAI TESQUE, INC., 0845874) medium. After culturing under conditions of 37° C. and 5% CO2 for 2 hours, the cells were transfected with the plasmids. The transfection was conducted by using Lipofectamine LTX (Invitrogen, 15338-100) according to the attached manual. The plasmid solution was prepared by adding a mixture solution of the luciferase expression plasmid and the PPAR-α receptor expression plasmid to OPTI-MEM I (Invitrogen, 11058-021). After the transfection, the test compound was added, and the cells were cultured at 37° C. in the presence of 5% CO2 for 18 to 20 hours. After the culturing, the luciferase activity was measured with Luminescensor JNR (ATTO) by using Bright-Glo (Promega, E2620).
The fold induction of PPAR-α by each test compound was calculated by the following method. A relative fold induction (%) of PPAR-α by the test compound was defined as 100 (A/B), where A represents the maximum value of the PPAR-α activities of the test compound at 3 μM, 10 μM, 30 μM, and 100 μM, and B represents the PPAR-α activity of the compound of WO/2011/058154 at 100 μM.
(Reporter assays use an easily measured gene product as a stand-in for the process of interest.)
With `CSc1cc(F)c(F)cc1-c1ccc(OCc2cccc(C(=O)N(CC(=O)O)CC3CCS(=O)(=O)C3)c2)cc1` (centres unmarked) [Example 46, 2-[[3-[[4-(4,5-Difluoro-2-methylsulfanyl-phenyl)phenoxy]methyl]benzoyl]-[(1,1-dioxothiolan-3-yl)methyl]amino]acetic Acid], the Emax was 4.6%.
The result for `O=C(O)[C@@H]1[C@H](O)CCN1C(=O)c1cccc(COc2ccc(-c3cc(F)c(F)c4ccoc34)cc2)c1` [Example 3, (2S,3R)-1-[3-[[4-(4,5-Difluorobenzofuran-7-yl)phenoxy]methyl]benzoyl]-3-hydroxy-pyrrolidine-2-carboxylic Acid] reads 11%; that for `CSc1cc(F)c(F)cc1-c1ccc(OCc2cccc(C(=O)N3[C@@H](CO)CC[C@H]3C(=O)O)c2)cc1` [Example 64, (2S,5R)-1-[3-[[4-(4,5-Difluoro-2-methylsulfanyl-phenyl)phenoxy]methyl]benzoyl]-5-(hydroxymethyl)pyrrolidine-2-carboxylic Acid], 20%.
The result for `COCCOCCN(CC(=O)O)C(=O)c1cccc(COc2ccc(-c3cc(F)c(F)cc3SC)cc2)c1` [Example 49, 2-[[3-[[4-(4,5-Difluoro-2-methylsulfanyl-phenyl)phenoxy]methyl]benzoyl]-[2-(2-methoxyethoxy)ethyl]amino]acetic Acid] reads 29%; that for `COC1CCN(C(=O)c2cccc(COc3ccc(-c4cc(F)c(F)cc4SC)cc3)c2)C1C(=O)O` (stereo in doubt) [Example 33, (2S,3S)-1-[3-[[4-(4,5-Difluoro-2-methylsulfanyl-phenyl)phenoxy]methyl]benzoyl]-3-methoxy-pyrrolidine-2-carboxylic Acid], 13%.
With `CSc1cc(F)c(F)cc1-c1ccc(OCc2cccc(C(=O)N(CC(=O)O)[C@@H](C)C(N)=O)c2)cc1` [Example 22, 2-[[(1S)-2-Amino-1-methyl-2-oxo-ethyl]-[3-[[4-(4,5-difluoro-2-methylsulfanyl-phenyl)phenoxy]methyl]benzoyl]amino]acetic Acid], the Emax came to 14%.
On to `CS(=O)(=O)CCN(CC(=O)O)C(=O)c1cccc(COc2ccc(-c3cc(F)c(F)c4ccoc34)cc2)c1` [Example 8, 2-[[3-[[4-(4,5-Difluorobenzofuran-7-yl)phenoxy]methyl]benzoyl]-(2-methylsulfonylethyl)amino]acetic Acid], for which the Emax stood at 11%.
The result for `COC(C)CN(CC(=O)O)C(=O)c1cccc(COc2ccc(-c3cc(F)c(F)cc3SC)cc2)c1` (centres unmarked) [Example 45, 2-[[3-[[4-(4,5-Difluoro-2-methylsulfanyl-phenyl)phenoxy]methyl]benzoyl]-(2-methoxypropyl)amino]acetic Acid] reads 25%; that for `COC[C@H](C)N(CC(=O)O)C(=O)c1cccc(COc2ccc(-c3cc(F)c(F)c4ccoc34)cc2)c1` [Example 80, 2-[[3-[[4-(4,5-Difluorobenzofuran-7-yl)phenoxy]methyl]benzoyl]-[(1S)-2-methoxy-1-methyl-ethyl]amino]acetic Acid], 91%; that for `CSc1cc(F)c(F)cc1-c1ccc(OCc2cccc(C(=O)N3C(CC#N)CC[C@H]3C(=O)O)c2)cc1` (stereo partly drawn) [Example 72, (2S)-5-(Cyanomethyl)-1-[3-[[4-(4,5-difluoro-2-methylsulfanyl-phenyl)phenoxy]methyl]benzoyl]pyrrolidine-2-carboxylic Acid], 12%.
With `CSc1cc(F)c(F)cc1-c1ccc(OCc2cccc(C(=O)N(CCNC(C)=O)CC(=O)O)c2)cc1` [Example 44, 2-[2-Acetamidoethyl-[3-[[4-(4,5-difluoro-2-methylsulfanyl-phenyl)phenoxy]methyl]benzoyl]amino]acetic Acid], the Emax was determined as 25%.
For the molecule `CSc1cc(F)c(F)cc1-c1ccc(OCc2cccc(C(=O)N(CC(=O)O)Cc3coc(C)n3)c2)cc1` [Example 67, 2-[[3-[[4-(4,5-Difluoro-2-methylsulfanyl-phenyl)phenoxy]methyl]benzoyl]-[(2-methyloxazol-4-yl)methyl]amino]acetic Acid], the Emax came out at 19%.
Next, `CS(=O)(=O)CCCN(CC(=O)O)C(=O)c1cccc(COc2ccc(-c3cc(F)c(F)c4ccoc34)cc2)c1` [Example 77, 2-[[3-[[4-(4,5-Difluorobenzofuran-7-yl)phenoxy]methyl]benzoyl]-(3-methylsulfonylpropyl)amino]acetic Acid]: 40%; `CSc1cc(F)c(F)cc1-c1ccc(OCc2cccc(C(=O)N(CC(=O)O)Cc3ccncc3)c2)cc1` [Example 19, 2-[[3-[[4-(4,5-Difluoro-2-methylsulfanyl-phenyl)phenoxy]methyl]benzoyl]-(4-pyridylmethyl)amino]acetic Acid Trifluoroacetate]: 21%; `CSc1cc(F)c(F)cc1-c1ccc(OCc2cccc(C(=O)N(CC(=O)O)Cc3cn(C)cn3)c2)cc1` [Example 74, 2-[[3-[[4-(4,5-Difluoro-2-methylsulfanyl-phenyl)phenoxy]methyl]benzoyl]-[(1-methylimidazol-4-yl)methyl]amino]acetic Acid]: 16%.
Next, `CSc1cc(F)c(F)cc1-c1ccc(OCc2cccc(C(=O)N(CC(=O)O)Cc3noc(C)n3)c2)cc1` [Example 69, 2-[[3-[[4-(4,5-Difluoro-2-methylsulfanyl-phenyl)phenoxy]methyl]benzoyl]-[(5-methyl-1,2,4-oxadiazol-3-yl)methyl]amino]acetic Acid]: 23%; `CSc1cc(F)c(F)cc1-c1ccc(OCc2cccc(C(=O)N3C(C(N)=O)CC[C@H]3C(=O)O)c2)cc1` (single isomer, unassigned) [Example 57, (2S,5R) or (2S,5S)-5-Carbamoyl-1-[3-[[4-(4,5-difluoro-2-methylsulfanyl-phenyl)phenoxy]methyl]benzoyl]pyrrolidine-2-carboxylic Acid]: 6.7%.
Next, `CCNCCN(CC(=O)O)C(=O)c1cccc(COc2ccc(-c3cc(F)c(F)cc3SC)cc2)c1` [Example 43, 2-[[3-[[4-(4,5-Difluoro-2-methylsulfanyl-phenyl)phenoxy]methyl]benzoyl]-[2-(ethylamino)ethyl]amino]acetic Acid Trifluoroacetate]: 9%; `CSc1cc(F)c(F)cc1-c1ccc(OCc2cccc(C(=O)N(CC(=O)O)[C@H]3CC[C@@H](N)CC3)c2)cc1` [Example 48, 2-[(4-Aminocyclohexyl)-[3-[[4-(4,5-difluoro-2-methylsulfanyl-phenyl)phenoxy]methyl]benzoyl]amino]acetic Acid Trifluoroacetate]: 4%.
As for `CNS(=O)(=O)CCN(CC(=O)O)C(=O)c1cccc(COc2ccc(-c3cc(F)c(F)cc3SC)cc2)c1` [Example 56, 2-[[3-[[4-(4,5-Difluoro-2-methylsulfanyl-phenyl)phenoxy]methyl]benzoyl]-[2-(methylsulfamoyl)ethyl]amino]acetic Acid], the Emax stood at 8%.
Next, `CSc1cc(F)c(F)cc1-c1ccc(OCc2cccc(C(=O)N(CC(=O)O)CC(=O)N3CCCC3)c2)cc1` [Example 25, 2-[[3-[[4-(4,5-Difluoro-2-methylsulfanyl-phenyl)phenoxy]methyl]benzoyl]-(2-oxo-2-pyrrolidin-1-yl-ethyl)amino]acetic Acid]: 13%.
Next, `COC(C)(C)CN(CC(=O)O)C(=O)c1cccc(COc2ccc(-c3cc(F)c(F)cc3SC)cc2)c1` [Example 23, 2-[[3-[[4-(4,5-Difluoro-2-methylsulfanyl-phenyl)phenoxy]methyl]benzoyl]-(2-methoxy-2-methyl-propyl)amino]acetic Acid]: 22%; `CSc1cc(F)c(F)cc1-c1ccc(OCc2cccc(C(=O)N3CC[C@H](O)[C@H]3C(=O)O)c2)cc1` [Example 5, (2S,3S)-1-[3-[[4-(4,5-Difluoro-2-methylsulfanyl-phenyl)phenoxy]methyl]benzoyl]-3-hydroxy-pyrrolidine-2-carboxylic Acid]: 10%.
